Measurements reported in US8487121B2, “Chromane derivatives as TRPV3 modulators” (Glenmark Pharmaceuticals S.A., priority 2007, dated 2013).

Target: T1, Human TRPV3 (Homo sapiens, UniProt Q8NET8)
T1 construct: expressed in transfected cells; host or cells: CHO cells (G-418 selected)
T1 sequence (Q8NET8 1-790): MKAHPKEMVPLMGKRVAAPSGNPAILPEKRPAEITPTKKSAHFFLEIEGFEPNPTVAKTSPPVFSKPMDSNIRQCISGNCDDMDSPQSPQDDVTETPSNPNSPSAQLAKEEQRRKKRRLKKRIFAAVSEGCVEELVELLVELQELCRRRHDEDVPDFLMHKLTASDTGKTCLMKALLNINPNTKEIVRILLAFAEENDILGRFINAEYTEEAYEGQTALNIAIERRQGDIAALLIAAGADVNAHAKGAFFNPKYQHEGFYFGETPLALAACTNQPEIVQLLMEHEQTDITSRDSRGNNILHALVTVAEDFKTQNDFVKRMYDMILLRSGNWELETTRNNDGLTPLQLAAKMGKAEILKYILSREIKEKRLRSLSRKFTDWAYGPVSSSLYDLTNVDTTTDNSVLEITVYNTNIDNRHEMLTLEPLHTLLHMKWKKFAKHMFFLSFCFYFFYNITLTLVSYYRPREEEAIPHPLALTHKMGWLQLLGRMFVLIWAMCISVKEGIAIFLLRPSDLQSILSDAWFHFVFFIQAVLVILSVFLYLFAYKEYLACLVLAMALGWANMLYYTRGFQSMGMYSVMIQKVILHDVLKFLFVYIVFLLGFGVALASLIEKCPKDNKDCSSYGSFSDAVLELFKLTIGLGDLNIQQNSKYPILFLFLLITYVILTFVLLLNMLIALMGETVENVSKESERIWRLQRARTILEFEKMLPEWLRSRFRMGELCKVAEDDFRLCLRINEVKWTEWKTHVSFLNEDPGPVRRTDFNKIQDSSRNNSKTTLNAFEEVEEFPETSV
Experiment: 45Calcium uptake assay: inhibition of 2-APB induced cellular uptake of radioactive calcium
Format: cell-based
Conditions: human TRPV3 expressing CHO cells, 2-APB 500 μM
Outline: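 CHO cells stably expressing human TRPV3 (~50,000/well) were preincubated with compounds for 10 min in medium containing 0.1% BSA, 1.8 mM CaCl2 and 0.5% DMSO. Then 500 μM 2-APB and 5 μCi/ml 45Ca2+ were added for 4 min. Lysate radioactivity was expressed as % of maximal uninhibited response, and IC50 came from nonlinear regression, alongside % inhibition at 1.0 and 10.0 μM.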

inhibition at 1 µM (1.0 μM compound, read-out: Percentage inhibition at 1.0 μM): 51.3% | inhibition at 10 µM (10.0 μM compound, read-out: Percentage inhibition at 10.0 μM): 92.5%
Compound: COc1cccc(CCCC(=O)NC2CCSc3ccc(Cl)cc32)c1OC1CCCC1 (centres unmarked) [Example 104, N-(6-chloro-3,4-dihydro-2H-thiochromen-4-yl)-4-(2-cyclopentyloxy-3-methoxyphenyl)-butanamide]
